Results: patent publication US7652047B2, “Phenylamino isothiazole carboxamidines as MEK inhibitors” (Ardea Biosciences, Inc., priority 2005, dated 2010)

What follows are compounds tested against T1, MEK1^CA (human GST-MEK1, constitutively active, Ser218Asp and Ser222Asp) (Homo sapiens, UniProt Q02750, S218D/S222D) (assay: MEK1 enzymatic activity assay (MEK1^CA / ERK2 / MBP, [γ-33P]ATP incorporation)). Settings: Table 1, compounds of formula I; read-out: Avg IC50.
T1 construct: GST; made in house; host or cells: Escherichia coli
Format: biochemical
Procedure, shortened: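 Cascade assay: 25 µl reactions with 0.002 nmol E. coli-expressed GST-MEK1 S218D/S222D, 0.02 nmol His-tagged mouse ERK2, 0.25 nmol MBP, 0.25 nmol unlabeled ATP and 0.1 µCi [γ-33P]ATP. Compound preincubated 30 min at ambient temperature with MEK1/ERK2; stopped with TCA, 33P-labelled protein filter-captured and scintillation-counted.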

T1 sequence (Q02750 whole entry S218D/S222D): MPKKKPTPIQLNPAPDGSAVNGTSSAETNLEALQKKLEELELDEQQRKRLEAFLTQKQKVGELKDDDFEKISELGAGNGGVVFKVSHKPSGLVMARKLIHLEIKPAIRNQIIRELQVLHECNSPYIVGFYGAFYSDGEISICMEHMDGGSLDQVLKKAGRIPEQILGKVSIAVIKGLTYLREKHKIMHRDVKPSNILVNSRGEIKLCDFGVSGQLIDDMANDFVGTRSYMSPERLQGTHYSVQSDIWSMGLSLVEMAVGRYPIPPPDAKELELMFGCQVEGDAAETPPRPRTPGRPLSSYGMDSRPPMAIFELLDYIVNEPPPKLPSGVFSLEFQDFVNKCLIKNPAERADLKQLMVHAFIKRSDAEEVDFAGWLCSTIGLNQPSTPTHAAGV

| SMILES | IC50 [nM] |
| --- | --- |
| CC(CO)NC(=N)c1c(O)nsc1Nc1ccc(Oc2ccccc2)nc1 (stereo not drawn) [compound 258] | > 500 |
| CC(CO)NC(=N)c1c(O)nsc1Nc1ccc(Oc2ccc(Br)cc2)c(F)c1 (stereo not drawn) [compound 333] | 1 to 100 |
| CC(CO)NC(=N)c1c(O)nsc1Nc1ccc(Oc2cccc3ccccc23)cc1 (stereo not drawn) [compound 338] | 1 to 100 |
| CC(C)NC(=N)c1c(O)nsc1Nc1ccc(Oc2cc(C(F)(F)F)ccc2Cl)cc1 [compound 294] | 100 to 500 |
| N=C(NCC1CCCCC1)c1c(O)nsc1Nc1ccc(Oc2cncnc2)cc1 [compound 137] | > 500 |
| CC[C@@H](CO)NC(=N)c1c(O)nsc1Nc1ccc(Oc2ccccc2)cc1 [compound 176] | 100 to 500 |
| CC(C)NC(=N)c1c(O)nsc1Nc1ccc(Oc2ccc(O)cc2)cc1 [compound 298] | 100 to 500 |
| CC(C)NC(=N)c1c(O)nsc1Nc1ccc(Oc2ccc(F)cc2)cc1 [compound 205] | 100 to 500 |
| CC(CO)NC(=N)c1c(O)nsc1Nc1ccc(Oc2cc(F)ccc2F)cc1 (stereo not drawn) [compound 350] | 1 to 100 |
| N=C(c1c(O)nsc1Nc1ccc(Oc2cc(F)cc(F)c2)cc1)N1CCOCC1 [compound 420] | > 500 |
| Cc1cccc(C)c1Oc1ccc(Nc2snc(O)c2C(=N)NC(C)C)cc1F [compound 279] | 1 to 100 |
| CC(C)NC(=N)c1c(O)nsc1Nc1ccc(Oc2ccccc2)cc1 [Cpd 28] | 1 to 100 |
| CC(CO)NC(=N)c1c(O)nsc1Nc1cc(F)c(Oc2cc(Cl)ccc2Cl)cc1F (stereo not drawn) [compound 476] | 1 to 100 |
| COC(=O)c1cccc(Nc2snc(O)c2C(=N)NCC(C)O)c1C (stereo not drawn) [compound 495] | > 500 |
| N=C(N)c1c(O)nsc1Nc1ccc(Oc2ccccc2)cc1 [compound 110] | 100 to 500 |
| CC(CO)NC(=N)c1c(O)nsc1Nc1ccc(-c2nc3ccccc3[nH]2)cc1 (stereo not drawn) [compound 509] | > 500 |
| CC(C)NC(=N)c1c(O)nsc1Nc1ccc(Oc2ccccc2)c(F)c1 [compound 307] | 1 to 100 |
| CC(C)NC(=N)c1c(O)nsc1Nc1ccc(Oc2ccc(Cl)cc2Cl)c(F)c1 [compound 320] | 1 to 100 |
| N=C(NC1CC1)c1c(O)nsc1Nc1ccc(Oc2ccccc2)cc1 [compound 44] | > 500 |
| N=C(NCc1ccccn1)c1c(O)nsc1Nc1ccc(Oc2cc(F)cc(F)c2)cc1 [compound 415] | 1 to 100 |
| N=C(N[C@@H]1CC2CCC1C2)c1c(O)nsc1Nc1ccc(Oc2ccccc2)cc1 (stereo partly drawn) [Cpd 22] | 1 to 100 |

| SMILES | IC50 [nM] |
| --- | --- |
| CC(C)NC(=N)c1c(O)nsc1Nc1ccc(Oc2cccc(Cl)c2)cc1 [compound 249] | 1 to 100 |
| CC(C)NC(=N)c1c(O)nsc1Nc1ccc(O)c(Cl)c1 [compound 243] | 100 to 500 |
| CC(O)CNC(=N)c1c(O)nsc1Nc1ccc(Oc2ccccc2)cc1 (stereo not drawn) [compound 156] | 100 to 500 |
| N=C(NCC(c1ccccc1)c1ccccc1)c1c(O)nsc1Nc1ccc(Oc2ccccc2)cc1 [compound 48] | 1 to 100 |
| N=C(NCC1CCCCC1)c1c(O)nsc1NCC1CC1 [compound 119] | > 500 |
| CC(C)NC(=N)c1c(O)nsc1Nc1cc(F)c(Oc2cc(Cl)ccc2Cl)cc1F [compound 475] | 1 to 100 |
| N=C(NCCO)c1c(O)nsc1Nc1ccc(Oc2ccccc2)cc1 [compound 33] | 1 to 100 |
| CC(C)NC(=N)c1c(O)nsc1Nc1ccc(Oc2cccc(F)c2)c(F)c1 [compound 363] | > 500 |
| Cc1cccc(Oc2ccc(Nc3snc(O)c3C(=N)NC(C)C)cc2)c1C [compound 345] | 1 to 100 |
| Cc1cccc(C)c1Oc1ccc(Nc2snc(O)c2C(=N)NC(C)C)cc1 [compound 271] | > 500 |
| N=C(NC1CC1)c1c(O)nsc1Nc1ccc(Oc2cc(F)cc(F)c2)cc1 [compound 416] | 100 to 500 |
| N=C(NC1CCCC1)c1c(O)nsc1Nc1ccc(Oc2ccccc2)cc1 [Cpd 12] | 1 to 100 |
| N=C(NC(CO)CO)c1c(O)nsc1Nc1ccc(Oc2ccccc2)cc1 [compound 164] | 1 to 100 |
| N=C(NCc1ccccn1)c1c(O)nsc1Nc1ccc(Oc2cc(Cl)ccc2Cl)cc1 [compound 448] | 1 to 100 |
| N=C(c1c(O)nsc1Nc1ccc(Oc2ccc(Cl)cc2Cl)cc1)N1CCCCC1 [compound 427] | > 500 |
| CC(C)NC(=N)c1c(O)nsc1Nc1ccc(C(=O)c2ccccc2)cc1 [compound 234] | 100 to 500 |
| N=C(NCC1CCCO1)c1c(O)nsc1Nc1ccc(Oc2cc(F)cc(F)c2)cc1 (stereo not drawn) [compound 414] | 1 to 100 |
| C[C@@H](CO)NC(=N)c1c(O)nsc1Nc1ccc(Oc2ccccc2)cc1 [compound 174] | 1 to 100 |
| CCOC(=O)c1ccc(Oc2ccc(Nc3snc(O)c3C(=N)NC(C)CO)cc2)cc1 (stereo not drawn) [compound 497] | 1 to 100 |
| N=C(NCCO)c1c(O)nsc1Nc1ccc(Oc2cncnc2)cc1 [compound 171] | > 500 |
| CCCCC(CO)NC(=N)c1c(O)nsc1Nc1ccc(Oc2ccccc2)cc1 (stereo not drawn) [compound 157] | 100 to 500 |

| SMILES | IC50 [nM] |
| --- | --- |
| CC(C)NC(=N)c1c(O)nsc1Nc1ccc(C2CCCCC2)cc1 [compound 170] | 100 to 500 |
| Cn1sc(Nc2ccc(Oc3ccccc3)cc2)c(C(=N)NC2CCCC2)c1=O [Cpd 24] | > 500 |
| CNC(=N)c1c(O)nsc1Nc1ccc(C)cc1 [Cpd 1] | 100 to 500 |
| CN(C)CCNC(=N)c1c(O)nsc1Nc1ccc(Oc2cc(F)cc(F)c2)cc1 [compound 418] | 100 to 500 |
| CC(C)NC(=N)c1c(O)nsc1Nc1ccc(Oc2ccccc2F)cc1 [compound 356] | 1 to 100 |
| Cc1ccc(Cl)c(Oc2ccc(Nc3snc(O)c3C(=N)NC(C)CO)cc2)c1 (stereo not drawn) [compound 288] | 1 to 100 |
| Cc1cc(Oc2cccc(C(F)(F)F)c2)ccc1Nc1snc(O)c1C(=N)NC(C)CO (stereo not drawn) [compound 438] | 1 to 100 |
| CC(C)NC(=N)c1c(O)nsc1Nc1ccc(Oc2ccc(F)cc2F)cc1 [compound 357] | 1 to 100 |
| CCC(CO)NC(=N)c1c(O)nsc1Nc1ccc(Oc2cc(F)cc(F)c2)cc1C (stereo not drawn) [compound 468] | 1 to 100 |
| N=C(NCC1CCCCC1)c1c(O)nsc1NC1CCCCC1 [compound 90] | > 500 |
| CC(CO)NC(=N)c1c(O)nsc1Nc1ccc(Oc2ccc(F)cc2)cc1 (stereo not drawn) [compound 206] | > 500 |
| Cc1cccc(C)c1Oc1ccc(Nc2snc(O)c2C(=N)NC(C)CO)cc1 (stereo not drawn) [compound 282] | > 500 |
| N=C(NCC1CCCCC1)c1c(O)nsc1Nc1ccc(/C=C/c2ccccc2)cc1 [compound 133] | > 500 |
| N=C(NCC1CCCCC1)c1c(O)nsc1Nc1cc(C(F)(F)F)cc(C(F)(F)F)c1 [compound 66] | > 500 |
| CC(CO)NC(=N)c1c(O)nsc1Nc1ccc(Oc2ccc(S(C)(=O)=O)cc2)cc1 (stereo not drawn) [compound 491] | > 500 |
| N=C(NCC(O)CO)c1c(O)nsc1Nc1cccc(Br)c1 (stereo not drawn) [compound 73] | 100 to 500 |
| Cc1ccccc1Oc1ccc(Nc2snc(O)c2C(=N)NC(C)C)cc1 [compound 301] | 1 to 100 |
| CCC(CO)NC(=N)c1c(O)nsc1Nc1ccc(Oc2ccccc2)cc1 (stereo not drawn) [compound 153] | 100 to 500 |
| N=C(NC1(CO)CCCC1)c1c(O)nsc1Nc1ccc(Oc2ccccc2)cc1 [compound 190] | 100 to 500 |
| CC(CO)NC(=N)c1c(O)nsc1Nc1ccc(Oc2cccc(C(C)(C)C)c2)cc1 (stereo not drawn) [compound 284] | 100 to 500 |
| CC(C)NC(=N)c1c(O)nsc1Nc1ccc(Oc2ccc(F)cc2Cl)c(F)c1 [compound 369] | 1 to 100 |

| SMILES | IC50 [nM] |
| --- | --- |
| Cc1ccc(Nc2snc(O)c2C(=N)N2CCc3ccccc3C2)cc1 [Cpd 8] | > 500 |
| CC(C)(C)CCNC(=N)c1c(O)nsc1Nc1ccc(Oc2ccccc2)cc1 [compound 42] | 1 to 100 |
| Cc1cc(Oc2cccc(C(F)(F)F)c2)ccc1Nc1snc(O)c1C(=N)NC(CO)C(C)C (stereo not drawn) [compound 492] | 100 to 500 |
| COC(=O)c1ccccc1Oc1ccc(Nc2snc(O)c2C(=N)NC(C)C)cc1 [compound 487] | 1 to 100 |
| N=C(N[C@H](CO)CC1CCCCC1)c1c(O)nsc1Nc1ccc(Oc2ccccc2)cc1 [compound 168] | > 500 |
| N=C(NCCCCO)c1c(O)nsc1Nc1ccc(Oc2ccccc2)cc1 [Cpd 9] | 1 to 100 |
| CC(O)CNC(=N)c1c(O)nsc1Nc1cc(F)c(Oc2cc(Cl)ccc2Cl)cc1F (stereo not drawn) [compound 478] | 1 to 100 |
| CC(CO)NC(=N)c1c(O)nsc1Nc1ccc(Oc2ccc(Br)c3ccccc23)cc1 (stereo not drawn) [compound 337] | 1 to 100 |
| CCC[C@H]1CC[C@H](c2ccc(Nc3snc(O)c3C(=N)NC(C)C)cc2)CC1 [compound 160] | 100 to 500 |
| COC(=O)c1cccc(Nc2snc(O)c2C(=N)NC(C)CO)c1C (stereo not drawn) [compound 490] | 100 to 500 |
| N=C(NN1CCCCC1)c1c(O)nsc1Nc1ccc(Oc2cc(Cl)ccc2Cl)cc1 [compound 449] | 1 to 100 |
| Cc1cc(Nc2snc(O)c2C(=N)NC(C)C)ccc1Oc1ccccc1 [compound 317] | 100 to 500 |
| Cc1cccc(Nc2snc(O)c2C(=N)NCC2CCCCC2)c1 [compound 81] | > 500 |
| CC(CO)NC(=N)c1c(O)nsc1Nc1ccc(Oc2cc(C(F)(F)F)ccc2Cl)cc1F (stereo not drawn) [compound 394] | 1 to 100 |
| CC[C@@H](CO)NC(=N)c1c(O)nsc1Nc1ccc(Oc2cccc(C(F)(F)F)c2)cc1C [compound 506] | 100 to 500 |
| CC(C)NC(=N)c1c(O)nsc1Nc1ccc(Oc2ccccc2)c(Cl)c1 [compound 286] | 1 to 100 |
| CCOC(=O)c1cccc(Nc2snc(O)c2C(=N)NCC(C)O)c1 (stereo not drawn) [compound 496] | > 500 |
| CC(CO)NC(=N)c1c(O)nsc1Nc1ccc(Oc2cc(Cl)ccc2Cl)nc1 (stereo not drawn) [compound 434] | 1 to 100 |

Same assay, conditions: Table 2, Ar1-A contains an amido or indolo group; read-out: IC 50

| SMILES | IC50 [nM] |
| --- | --- |
| N=C(NCCO)c1c(O)nsc1Nc1ccc(C(=O)Nc2ccccc2)cc1 [E-8] | 200 to 1000 |

Same assay, conditions: Table 3, benzamides of formula X; read-out: IC 50

| SMILES | IC50 [nM] |
| --- | --- |
| N=C(NCCO)c1c(O)nsc1Nc1ccc(C(=O)Nc2ccccc2)cc1 [drawing 809] | 100 to 500 |

Same assay, conditions: Table 4, R' is (CH2)1 or 2-G; read-out: IC50

| SMILES | IC50 [nM] |
| --- | --- |
| N=C(NCc1ccccc1)c1c(O)nsc1Nc1ccc(C(=O)c2ccccc2)cc1 | 100 to 500 |
